The values below come from patent US9296741B2, “Bromodomain inhibitors” (priority 2012, dated 2016).

The term Ki denotes a measure of affinity in units of concentration, obtained from inhibition or displacement. Lower therefore signals higher affinity.

Data set [1] is described as follows: Rat liver microsome stability assay. Format: in vitro ADME. The settings on record: rat liver microsomes (male Sprague-Dawley), 0.5 μM test compound, pH 7.4, 37° C.; for half-life at 0.5 μM: 0.25 mg/mL microsomal protein, read-out: Stability in rat liver microsomes (t1/2 in minutes). On the technique in general: Microsomes from liver hold many membrane-bound enzymes, among them those of drug oxidation.

The target of data set [2] is human BRD4 second bromodomain (BDII_E352-M457) (Homo sapiens (Human), UniProt O60885). Kind of data set: TR-FRET bromodomain binding assay, BRD4 second bromodomain.
Data set [3] has as its target human BRD4 first bromodomain (BDI_K57-E168) (Homo sapiens (Human), UniProt O60885). Kind of data set: TR-FRET bromodomain binding assay, BRD4 first bromodomain.
Data set [4] relates to breast cancer cell line MX-1. As to the kind of experiment: MX-1 cell line proliferation assay. Format: cell-based, human. The settings on record: Homo sapiens, MX1, 72 h; MX-1 cells, 3-day proliferation, Cell Titer Glo; read-out: Cellular proliferation: EC50. For orientation: Cellular ATP, detected with luciferase, serves as a proxy for viable cell number.
Data set [5] is described as follows: Mouse liver microsome stability assay. The settings on record: male, CD1, mouse, microsomes, pH 7.4. The format is in vitro ADME.
Data set [6] is described as follows: Human liver microsome stability assay. The format is in vitro ADME. The note with it: both sexes, human, microsomes, pH 7.4.

SMILES strings stand for the structures. Some results are limits rather than exact numbers.

For `Cn1cc(-c2cc(S(C)(=O)=O)ccc2OC2CCCCCC2)c2cc[nH]c2c1=O` [Example 220, 4-[2-(cycloheptyloxy)-5-(methylsulfonyl)phenyl]-6-methyl-1,6-dihydro-7H-pyrrolo[2,3-c]pyridin-7-one], the half-life at 0.5 μM came out at 5 min in data set [1], 4 min in data set [5] and 5 min in data set [6]. In addition, the Ki in data set [2] amounted to 1.2 nM; in data set [3] it was 2.8 nM. For the same compound, in data set [4], the EC50 was 21.3 nM.
On to `Cn1cc(-c2cc(NS(C)(=O)=O)ccc2OC2CCCC2)c2cc[nH]c2c1=O` [Example 58, N-[4-(cyclopentyloxy)-3-(6-methyl-7-oxo-6,7-dihydro-1H-pyrrolo[2,3-c]pyridin-4-yl)phenyl]methanesulfonamide], for which, in data set [1] ([…] microsomal protein), the “Stability in rat liver microsomes (t1/2 in minutes)” value turned out to be 1 min. Further, the Ki in data set [2] was 8.1 nM; in data set [3], 2.1 nM. In addition, the EC50 in data set [4] worked out at 45.1 nM. For the same compound, the half-life at 0.5 μM is 4 min in data set [5] and greater than 120 min in data set [6].
As for `CCS(=O)(=O)Nc1ccc(Oc2ccc(F)cc2F)c(-c2cn(C)c(=O)c3[nH]cc(CN4CCN(C)CC4)c23)c1` [Example 351, N-[4-(2,4-difluorophenoxy)-3-{6-methyl-3-[(4-methylpiperazin-1-yl)methyl]-7-oxo-6,7-dihydro-1H-pyrrolo[2,3-c]pyridin-4-yl}phenyl]ethanesulfonamide], the half-life at 0.5 μM in data set [1] was determined as 66 min; in data set [5], 30 min; in data set [6] it was 76 min. For the same compound, the Ki is 153 nM in data set [2] and 223 nM in data set [3]. For the same compound, the EC50 in data set [4] was found to be 1100 nM.
As for `Cn1cc(-c2cc(C(N)=O)ccc2Oc2ccccc2)c2cc[nH]c2c1=O` [Example 19, 3-(6-methyl-7-oxo-6,7-dihydro-1H-pyrrolo[2,3-c]pyridin-4-yl)-4-phenoxybenzamide], the half-life at 0.5 μM in data set [1] is 13 min; in data set [5], 33 min; in data set [6], 92 min. Moreover, the Ki in data set [2] came out at 4.2 nM; in data set [3], 7.4 nM. Besides, the EC50 in data set [4] was 123 nM.
On to `Cn1cc(-c2cc(CC#N)ccc2OCC2CC2)c2cc[nH]c2c1=O` [Example 336, [4-(cyclopropylmethoxy)-3-(6-methyl-7-oxo-6,7-dihydro-1H-pyrrolo[2,3-c]pyridin-4-yl)phenyl]acetonitrile], for which the half-life at 0.5 μM amounted to 5 min in data set [1], 17 min in data set [5] and 44 min in data set [6]. Moreover, the figures for the Ki in data set [2] and in data set [3] were 152 nM and 76.2 nM, respectively. Moreover, the EC50 in data set [4] was found to be 115 nM.
Turning to `CC(COC(C)(C)C)Oc1ccc(S(C)(=O)=O)cc1-c1cn(C)c(=O)c2[nH]ccc12` (stereo not drawn) [Example 229, 4-{2-[(1-tert-butoxypropan-2-yl)oxy]-5-(methylsulfonyl)phenyl}-6-methyl-1,6-dihydro-7H-pyrrolo[2,3-c]pyridin-7-one], the half-life at 0.5 μM in data set [1] was 33 min; in data set [5] it was 9 min; in data set [6], 25 min. Besides, the Ki in data set [2] is 61.3 nM; in data set [3], 34.3 nM. Further, in data set [4], the EC50 was 288 nM.
For `CCS(=O)(=O)Nc1ccc(Oc2ccc(F)cc2F)c(-c2cn(C)c(=O)c3[nH]c(C(=O)N4CCN(C)CC4)cc23)c1` [Example 338, N-[4-(2,4-difluorophenoxy)-3-{6-methyl-2-[(4-methylpiperazin-1-yl)carbonyl]-7-oxo-6,7-dihydro-1H-pyrrolo[2,3-c]pyridin-4-yl}phenyl]ethanesulfonamide], the half-life at 0.5 μM in data set [1] was 29 min; in data set [5], 20 min; in data set [6] it was 39 min. Also, the Ki in data set [2] was determined as 12.7 nM; in data set [3], 0.86 nM. Moreover, in data set [4], the EC50 was 77.9 nM.
On to `CC(C)COc1ccc(S(C)(=O)=O)cc1-c1cn(C)c(=O)c2[nH]ccc12` [Example 221, 6-methyl-4-[2-(2-methylpropoxy)-5-(methylsulfonyl)phenyl]-1,6-dihydro-7H-pyrrolo[2,3-c]pyridin-7-one], for which the half-life at 0.5 μM in data set [1] is 24 min; in data set [5] it was 43 min; in data set [6], 63 min. In addition, the inhibition constant (Ki) in data set [2] worked out at 5 nM; in data set [3], 6.6 nM. In addition, the EC50 in data set [4] was found to be 6.1 nM.
As to `CCCS(=O)(=O)Nc1ccc(Oc2ccc(F)cc2F)c(-c2cn(C)c(=O)c3[nH]ccc23)c1` [Example 115, N-[4-(2,4-difluorophenoxy)-3-(6-methyl-7-oxo-6,7-dihydro-1H-pyrrolo[2,3-c]pyridin-4-yl)phenyl]propane-1-sulfonamide], the half-life at 0.5 μM in data set [1] was 38 min; in data set [5], 55 min; in data set [6], 41 min. The Ki is 26.9 nM in data set [2] and 67.1 nM in data set [3]. Besides, the EC50 in data set [4] stood at 55 nM.
For `Cn1cc(-c2cc(C(=O)N3CCN(C(=O)c4ccco4)CC3)ccc2Oc2ccc(F)cc2F)c2cc[nH]c2c1=O` [Example 134, 4-[2-(2,4-difluorophenoxy)-5-{[4-(furan-2-ylcarbonyl)piperazin-1-yl]carbonyl}phenyl]-6-methyl-1,6-dihydro-7H-pyrrolo[2,3-c]pyridin-7-one], the results for the half-life at 0.5 μM in data set [1], in data set [5] and in data set [6] were 21 min, 2 min and 15 min, respectively. In addition, the Ki turned out to be 7.3 nM in data set [2] and 43.5 nM in data set [3]. The EC50 in data set [4] was 137 nM.
Regarding `CCS(=O)(=O)Nc1ccc(OCC2CC2)c(-c2cn(C)c(=O)c3[nH]ccc23)c1` [Example 145, N-[4-(cyclopropylmethoxy)-3-(6-methyl-7-oxo-6,7-dihydro-1H-pyrrolo[2,3-c]pyridin-4-yl)phenyl]ethanesulfonamide], the half-life at 0.5 μM was 12 min in data set [1], 16 min in data set [5] and greater than 120 min in data set [6]. In addition, the Ki in data set [2] was 5.6 nM; in data set [3], 2.7 nM. Further, in data set [4], the EC50 came out at 26.4 nM.
Take `CCS(=O)(=O)Nc1ccc(Oc2cncnc2)c(-c2cn(C)c(=O)c3[nH]ccc23)c1` [Example 141, N-[3-(6-methyl-7-oxo-6,7-dihydro-1H-pyrrolo[2,3-c]pyridin-4-yl)-4-(pyrimidin-5-yloxy)phenyl]ethanesulfonamide]: the values for the half-life at 0.5 μM in data set [1], in data set [5] and in data set [6] were 110 min, 49 min and greater than 120 min, respectively. The values for the Ki in data set [2] and in data set [3] were 15.2 nM and 5.4 nM, respectively. Further, the EC50 in data set [4] was 125 nM.
With `Cn1cc(-c2cc(NS(C)(=O)=O)cnc2Oc2ccccc2)c2cc[nH]c2c1=O` [Example 23, N-[5-(6-methyl-7-oxo-6,7-dihydro-1H-pyrrolo[2,3-c]pyridin-4-yl)-6-phenoxypyridin-3-yl]methanesulfonamide], the values for the half-life at 0.5 μM in data set [1], in data set [5] and in data set [6] were 11 min, greater than 120 min and 64 min, respectively. Besides, the Ki in data set [2] was 0.75 nM; in data set [3], 1.2 nM. Also, the EC50 in data set [4] came to 45.9 nM.
For the compound `CCS(=O)(=O)c1ccc(OC2CCN(C(=O)OC(C)(C)C)CC2)c(-c2cn(C)c(=O)c3[nH]ccc23)c1` [Example 312, tert-butyl 4-[4-(ethylsulfonyl)-2-(6-methyl-7-oxo-6,7-dihydro-1H-pyrrolo[2,3-c]pyridin-4-yl)phenoxy]piperidine-1-carboxylate], the results for the half-life at 0.5 μM in data set [1], in data set [5] and in data set [6] were 32 min, 9 min and 56 min, respectively. Moreover, the figures for the Ki in data set [2] and in data set [3] were 19 nM and 14.1 nM, respectively. For the same compound, the EC50 in data set [4] was found to be 67.5 nM.
For the compound `CC(=O)Nc1ccc(Oc2ccc(F)cc2F)c(-c2cn(C)c(=O)c3[nH]ccc23)c1` [Example 37, N-[4-(2,4-difluorophenoxy)-3-(6-methyl-7-oxo-6,7-dihydro-1H-pyrrolo[2,3-c]pyridin-4-yl)phenyl]acetamide], the half-life at 0.5 μM turned out to be 54 min in data set [1], 3 min in data set [5] and 88.9 min in data set [6]. In addition, the Ki in data set [2] stood at 10.8 nM; in data set [3] it was 11.3 nM. In addition, the EC50 in data set [4] was 59.3 nM.
Turning to `Cn1cc(-c2cc(S(C)(=O)=O)ccc2Oc2ccc(F)cc2F)c2cc(CNC3CCOC3)[nH]c2c1=O` (stereo not drawn) [Example 284, 4-[2-(2,4-difluorophenoxy)-5-(methylsulfonyl)phenyl]-6-methyl-2-[(tetrahydrofuran-3-ylamino)methyl]-1,6-dihydro-7H-pyrrolo[2,3-c]pyridin-7-one], the half-life at 0.5 μM in data set [1] is 108 min; in data set [5] it was greater than 120 min; in data set [6], 12 min. For the same compound, the Ki in data set [2] turned out to be 130 nM; in data set [3], 18.3 nM. Also, the EC50 in data set [4] was 131 nM.
With `Cn1cc(-c2cc(NS(=O)(=O)CCF)ccc2Oc2c(F)cc(F)cc2F)c2cc[nH]c2c1=O` [Example 114, 2-fluoro-N-[3-(6-methyl-7-oxo-6,7-dihydro-1H-pyrrolo[2,3-c]pyridin-4-yl)-4-(2,4,6-trifluorophenoxy)phenyl]ethanesulfonamide], the half-life at 0.5 μM in data set [1] was determined as 5 min; in data set [5], 8 min; in data set [6], 13 min. Besides, the Ki in data set [2] was determined as 121 nM; in data set [3] it was 136 nM. For the same compound, the EC50 in data set [4] is greater than 3000 nM.
On to `Cn1cc(-c2cc(S(C)(=O)=O)ccc2Oc2ccccc2Cl)c2cc[nH]c2c1=O` [Example 152, 4-[2-(2-chlorophenoxy)-5-(methylsulfonyl)phenyl]-6-methyl-1,6-dihydro-7H-pyrrolo[2,3-c]pyridin-7-one], for which the half-life at 0.5 μM in data set [1] was 10 min; in data set [5] it was 22 min; in data set [6], 51 min. Also, the Ki in data set [2] came to 4.8 nM; in data set [3] it was 24.6 nM. Also, the EC50 in data set [4] amounted to 105 nM.
